Laboratory results: US8927580B2, “Thiosemicarbazone compounds and use in the treatment of cancer” (Oncochel Therapeutics LLC, priority 2010, dated 2015)

How the values were obtained:
[1] = tested on: DMS-53 human lung carcinoma; assay: DMS-53 xenograft in nude mice, oral gavage: tumour growth; assay type: in vivo, nude mice (BALBc nu/nu); details: for Tumour weight: 21 days; for net tumour size (% of initial tumour volume): after 21 days
[2] = tested on: SK-N-MC neuroepithelioma cells; assay: Iron uptake assay (59Fe uptake from 59Fe-transferrin); assay type: cell-based, human; details: 25 μM chelator, 3 h at 37° C., 59Fe-Tf
Procedure: Cells were cultured in the same way as for the iron efflux experiments. […] At the end of the incubation the culture dishes were placed on ice, the media aspirated, and the cells washed 4 times with ice cold PBS. Protease (1 mL; 1 mg/mL; Sigma-Aldrich, NSW, Australia) solution was added to each plate and allowed to incubate on ice for 30 min. This facilitated the removal of membrane bound ^59Fe-Tf. Cells were then scraped from the plastic surface using a Teflon spatula and collected in Eppendorf tubes. These were centrifuged at 10000 rpm and 4° C. for 3 min. The supernatant was then transferred into counting tubes and the cell pellet resuspended in PBS before also being transferred into another set of counting tubes. Radioactivity was measured using a Wallac Wizard 3″ Gamma Counter (PerkinElmer, MA, USA). Results are expressed as average ^59Fe content of the cellular fraction as a percentage of the control value.

[3] = tested on: SK-N-MC neuroepithelioma cell line; assay: MTT anti-proliferative assay in SK-N-MC cells; assay type: cell-based, human; details: Homo sapiens, 72 h at 37° C., mean±SD (3 experiments)
Procedure: The cells were maintained in minimum essential media (MEM; Invitrogen, CA, USA) which contained 10% fetal calf serum (FCS; JRH Biosciences, Kansas, USA), 1% non-essential amino acids (Gibco, Victoria, Australia), 1% penicillin/streptomycin/glutamine (Gibco, VIC, Australia) and fungizone ([…]; Squibb Pharmaceuticals, Montreal, Canada).
The ability of the compounds to inhibit cellular proliferation was assessed initially in SK-N-MC cells by the MTT assay.
Table 1. […] Cells were seed and allowed to attach to wells for 24 h and then incubated for 72 h at 37° C. with control medium or the chelators.

[4] = tested on: DMS-53 human lung carcinoma; assay: DMS-53 xenograft in nude mice, i.v. administration: tumour growth; assay type: in vivo, nude mice (BALBc nu/nu); details: after 25 days, 4 or 6 mg/kg
[5] = tested on: SK-N-MC neuroepithelioma cells; assay: Iron efflux assay (59Fe release from pre-labeled cells); assay type: cell-based, human; details: 25 μM chelator, 3 h at 37° C.
Procedure: The culture dishes were then placed on ice, the supernatant containing excess ^59Fe-Tf was aspirated and the cells washed 4 times with ice-cold PBS. […] After 3 h the culture dishes were again placed on ice, the media was collected in counting tubes and this provided a measurement of released ^59Fe. Ice-cold PBS (1 mL) was added to plates containing cells and cells were scraped from the plastic surface using a Teflon spatula and also collected in counting tubes. These tubes represent the intracellular ^59Fe content. Results are expressed as total ^59Fe released as a percentage of total ^59Fe present. Radioactivity was measured using a Wallac Wizard 3″ Gamma Counter (PerkinElmer, MA, USA).

[6] = DMS-53 xenograft oral study: body and organ weights, haematology, biochemistry, histology; assay type: in vivo, nude mice (BALBc nu/nu); details: for Alanine Aminotransferase (ALT) / Albumin / Alkaline Phosphatase (ALP) / Cholesterol / Haematocrit (HCT) / Haemoglobin (HGB) / Platelets / Serum Iron / Total Iron-Binding Capacity (TIBC) / Triglyceride / Unsaturated Iron-Binding Capacity (UIBC) / White Blood Cell (WBC): oral gavage 21 days; for Red Blood Cell (RBC): oral gavage for 21 days, 3 days/week; for Body weight (% initial) / Brain weight / Heart weight / Kidney weight / Liver weight / Lung weight / Spleen weight: oral

CCN(C)C(=S)NN=C(c1ccccn1)c1ccccn1 [Dp4e4mT, di-2-pyridylketone 4-ethyl-4-methyl-3-thiosemicarbazone]
Tumour weight ([1]; 2.5 mg/kg): 0.63 ± 0.17 g
Tumour weight ([1]; 5 mg/kg): 0.89 ± 0.14 g
Tumour weight ([1]; 7.5 mg/kg): 0.60 ± 0.15 g
net tumour size (% of initial tumour volume) ([1]; 7.5 mg/kg): 404%
net tumour size (% of initial tumour volume) ([1]; 10 mg/kg): 284%
cellular 59Fe uptake (% of the control) [2]: 12%
IC50 [3]: 4.1 nM
net tumour size (% of the initial tumour volume) [4]: 120-122%
cellular 59Fe mobilised (59Fe released as percentage of total 59Fe) [5]: 38%
Alanine Aminotransferase (ALT) ([6]; 2.5 mg/kg): 73.1 U/L
Albumin ([6]; 2.5 mg/kg): 31.3 g/L
Alkaline Phosphatase (ALP) ([6]; 2.5 mg/kg): 85.7 U/L
Cholesterol ([6]; 2.5 mg/kg): 2.44 mmol/L
Haematocrit (HCT) ([6]; 2.5 mg/kg): 44%
Haemoglobin (HGB) ([6]; 2.5 mg/kg): 148 g/L
Platelets ([6]; 2.5 mg/kg): 1047 10^9/L
Serum Iron ([6]; 2.5 mg/kg): 25.5 µmol/L
Total Iron-Binding Capacity (TIBC) ([6]; 2.5 mg/kg): 56.7 µmol/L
Triglyceride ([6]; 2.5 mg/kg): 1.00 mmol/L
Unsaturated Iron-Binding Capacity (UIBC) ([6]; 2.5 mg/kg): 57.9 µmol/L
White Blood Cell (WBC) ([6]; 2.5 mg/kg): 2.68 10^9/L
Alanine Aminotransferase (ALT) ([6]; 5 mg/kg): 44.9 U/L
Albumin ([6]; 5 mg/kg): 30.4 g/L
Alkaline Phosphatase (ALP) ([6]; 5 mg/kg): 61.7 U/L
Cholesterol ([6]; 5 mg/kg): 2.63 mmol/L
Haematocrit (HCT) ([6]; 5 mg/kg): 43%
Haemoglobin (HGB) ([6]; 5 mg/kg): 143 g/L
Platelets ([6]; 5 mg/kg): 973 10^9/L
Serum Iron ([6]; 5 mg/kg): 31.0 µmol/L
Total Iron-Binding Capacity (TIBC) ([6]; 5 mg/kg): 53.1 µmol/L
Triglyceride ([6]; 5 mg/kg): 0.57 mmol/L
Unsaturated Iron-Binding Capacity (UIBC) ([6]; 5 mg/kg): 66.9 µmol/L
White Blood Cell (WBC) ([6]; 5 mg/kg): 1.80 10^9/L
Alanine Aminotransferase (ALT) ([6]; 7.5 mg/kg): 57.2 U/L
Albumin ([6]; 7.5 mg/kg): 31.3 g/L
Alkaline Phosphatase (ALP) ([6]; 7.5 mg/kg): 87.2 U/L
Cholesterol ([6]; 7.5 mg/kg): 2.78 mmol/L
Haematocrit (HCT) ([6]; 7.5 mg/kg): 45%
Haemoglobin (HGB) ([6]; 7.5 mg/kg): 151 g/L
Platelets ([6]; 7.5 mg/kg): 834 10^9/L
Serum Iron ([6]; 7.5 mg/kg): 32.8 µmol/L
Total Iron-Binding Capacity (TIBC) ([6]; 7.5 mg/kg): 56.8 µmol/L
Triglyceride ([6]; 7.5 mg/kg): 0.67 mmol/L
Unsaturated Iron-Binding Capacity (UIBC) ([6]; 7.5 mg/kg): 64.9 µmol/L
White Blood Cell (WBC) ([6]; 7.5 mg/kg): 3.08 10^9/L
Alanine Aminotransferase (ALT) ([6]; 10 mg/kg): 63.4 U/L
Albumin ([6]; 10 mg/kg): 29.3 g/L
Alkaline Phosphatase (ALP) ([6]; 10 mg/kg): 89.5 U/L
Cholesterol ([6]; 10 mg/kg): 2.46 mmol/L
Haematocrit (HCT) ([6]; 10 mg/kg): 44%
Haemoglobin (HGB) ([6]; 10 mg/kg): 142 g/L
Platelets ([6]; 10 mg/kg): 917 10^9/L
Serum Iron ([6]; 10 mg/kg): 21.2 µmol/L
Total Iron-Binding Capacity (TIBC) ([6]; 10 mg/kg): 60.2 µmol/L
Triglyceride ([6]; 10 mg/kg): 0.94 mmol/L
Unsaturated Iron-Binding Capacity (UIBC) ([6]; 10 mg/kg): 50.1 µmol/L
White Blood Cell (WBC) ([6]; 10 mg/kg): 3.27 10^9/L
Red Blood Cell (RBC) ([6]; 2.5 mg/kg): 10.55 10^12/L
Red Blood Cell (RBC) ([6]; 5 mg/kg): 10.26 10^12/L
Red Blood Cell (RBC) ([6]; 7.5 mg/kg): 10.85 10^12/L
Red Blood Cell (RBC) ([6]; 10 mg/kg): 10.18 10^12/L
Body weight (% initial) ([6]; 2.5 mg/kg): 94.1 ± 1.3 % initial
Brain weight ([6]; 2.5 mg/kg): 0.372 ± 0.006 g
Heart weight ([6]; 2.5 mg/kg): 0.078 ± 0.002 g
Kidney weight ([6]; 2.5 mg/kg): 0.194 ± 0.005 g
Liver weight ([6]; 2.5 mg/kg): 0.87 ± 0.02 g
Lung weight ([6]; 2.5 mg/kg): 0.121 ± 0.005 g
Spleen weight ([6]; 2.5 mg/kg): 0.075 ± 0.004 g
Body weight (% initial) ([6]; 5 mg/kg): 91.6 ± 2.4 % initial
Brain weight ([6]; 5 mg/kg): 0.367 ± 0.007 g
Heart weight ([6]; 5 mg/kg): 0.078 ± 0.002 g
Kidney weight ([6]; 5 mg/kg): 0.187 ± 0.006 g
Liver weight ([6]; 5 mg/kg): 0.77 ± 0.02 g
Lung weight ([6]; 5 mg/kg): 0.117 ± 0.003 g
Spleen weight ([6]; 5 mg/kg): 0.075 ± 0.004 g
Body weight (% initial) ([6]; 7.5 mg/kg): 91.6 ± 2.2 % initial
Brain weight ([6]; 7.5 mg/kg): 0.356 ± 0.007 g
Heart weight ([6]; 7.5 mg/kg): 0.092 ± 0.005 g
Kidney weight ([6]; 7.5 mg/kg): 0.193 ± 0.008 g
Liver weight ([6]; 7.5 mg/kg): 0.83 ± 0.03 g
Lung weight ([6]; 7.5 mg/kg): 0.119 ± 0.004 g
Spleen weight ([6]; 7.5 mg/kg): 0.061 ± 0.009 g
